One molecule from BindingDB's records for doi:10.1021/jm201708h (Progen Pharmaceuticals, 2012) can be followed below.

The assay deals with T1, Heparanase (Homo sapiens, UniProt Q9Y251).
T1 sequence (Q9Y251 whole entry): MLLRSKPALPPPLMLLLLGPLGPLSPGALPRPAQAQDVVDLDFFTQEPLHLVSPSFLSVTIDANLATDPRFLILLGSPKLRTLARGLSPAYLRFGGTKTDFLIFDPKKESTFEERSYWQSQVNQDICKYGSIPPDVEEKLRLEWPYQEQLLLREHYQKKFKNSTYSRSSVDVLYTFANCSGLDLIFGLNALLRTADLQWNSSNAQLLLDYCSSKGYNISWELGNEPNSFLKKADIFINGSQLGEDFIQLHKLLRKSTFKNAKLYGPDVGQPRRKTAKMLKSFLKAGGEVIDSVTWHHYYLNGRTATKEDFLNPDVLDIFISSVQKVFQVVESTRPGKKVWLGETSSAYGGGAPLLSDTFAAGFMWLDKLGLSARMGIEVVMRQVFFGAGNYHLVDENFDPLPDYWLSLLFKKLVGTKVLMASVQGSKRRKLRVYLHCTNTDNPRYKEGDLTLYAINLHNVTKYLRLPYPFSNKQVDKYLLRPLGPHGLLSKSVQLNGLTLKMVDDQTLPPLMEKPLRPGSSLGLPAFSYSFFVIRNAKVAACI
Description: Inhibition of human recombinant heparanase after 2 to 24 hrs by WST1 dye based fondaparinux assay. Background: Tetrazolium assays rely on reduction of a dye to a coloured formazan, in cell work by metabolically active cells.

The structures appear in SMILES notation. pKi: −log10 of the molar value.

As usually defined, the pKi is −log10 of the Ki, conventionally taken in molar units. For the molecule `O=P(O)(O)OC[C@H]1O[C@H](O[C@@H]2[C@H](OS(=O)(=O)O)[C@@H](O[C@@H]3[C@H](OS(=O)(=O)O)[C@@H](O[C@@H]4[C@H](OS(=O)(=O)O)[C@@H](O[C@@H]5[C@@H](OS(=O)(=O)O)O[C@H](COS(=O)(=O)O)[C@@H](OS(=O)(=O)O)[C@@H]5OS(=O)(=O)O)O[C@H](COS(=O)(=O)O)[C@H]4OS(=O)(=O)O)O[C@H](COS(=O)(=O)O)[C@H]3OS(=O)(=O)O)O[C@H](COS(=O)(=O)O)[C@H]2OS(=O)(=O)O)[C@@H](OS(=O)(=O)O)[C@@H](OS(=O)(=O)O)[C@@H]1OS(=O)(=O)O` [PI-88], the pKi is 8.10.
